The results in this text go back to US20120252773A1, “Method and composition for inhibiting cell proliferation and angiogenesis” (priority 2005, published 2012).

Test [1] relates to Human Dermal Microvascular Endothelial Cells (HDMVEC). Put plainly: Growth inhibition of HDMVEC cells, MTT, 7 days. The class given is cell-based. The conditions noted are these: Endothelial cell, HDMVEC growth, procedures of Example 3, read-out: Inhibitory Effect (IC50 Value). As to the method:
To measure the inhibitory activity of (2) on growth of HDMVEC cells (Clonetics, San Diego, Calif.), 2,000 cells were seeded in each well of a 96-well plate in […] of EGM medium (Clonetics) supplemented with 5% fetal bovine serum (Sigma). The plate was incubated at 37° C. in a tissue culture incubator for 24 h, and then various concentrations of (2) dissolved in EGM were added to each well in 5-10 μl aliquots. Four wells were used for each concentration. Medium in each well was renewed with fresh test solution added every other day. After 7 days of culture, the viable cells were measured using reagents from an MTT kit (Promega Corporation, Madison, Wis.), using instructions provided by the supplier. The number of viable cells in treated wells relative to those in control wells gave the percentage of inhibition.
The procedures of Example 3 were carried out to evaluate the inhibitory effect of various compounds of the invention on the growth of HDMVEC cells (Clonetics, San Diego, Calif.).

The subject of test [2] is human endometrial Ishikawa cells. Put plainly: Estrogenic activity, alkaline phosphatase, Ishikawa cell-based assay. As to conditions: 72 hours. How it is done: Ishikawa cell based assays were run in parallel on human endometrial Ishikawa cells treated with compound (2) or with 2-methoxyestradiol. 2-Methoxyestradiol is a compound reported in the literature as an anti-angiogenic agent. Cells were cultured in 96-well plates for 48 hours in estrogen- and phenol red-free medium (DMEM/Hamm's F12 medium) containing 5% fetal bovine serum stripped of endogenous estrogens with dextran coated charcoal (Sigma). Compound (2) or other test compounds were then added to the cells and culturing was continued for an additional 72 hours. To the control cells (no (2)), 10^−9 M of […] was added. At the end of 72 hours, alkaline phosphatase activity was measured by adding 5 mM p-nitrophenyl phosphate, 0.24 mM MgCl2, and 1 M diethanolamine (pH 9.8) to the cells while the 96-well plates were kept on ice. The plates were then warmed to room temperature, and the yellow color from the production of p-nitrophenol was measured after 2-3 hours using an ELISA plate reader at a wavelength of 405 nm. The estrogenic activity was defined as the alkaline phosphatase activity stimulated by the test compounds alone as a percentage of that stimulated by estradiol at 10^−9 M. Stimulation by estradiol at 10^−9 M was taken as 100%.

The test system of test [3] is HIF-1α protein in PC-3 prostate cancer cells. Put plainly: HIF-1α protein expression by immunoblotting, PC-3 cells. The test is classed as cell-based, human. As to conditions: PC-3, same hypoxic/anoxic conditions as for (2). How it is done: (§1) Hypoxia experiments were performed in either of two ways. To produce a very low ambient oxygen concentration (effectively anoxia), we used a protocol in which cells were incubated in a 5% CO2-air atmosphere at 37° C. overnight and then placed in aluminum gas-exchange chambers maintained at 37° C. (Laderoute K R et al. Mol Cell Biol 22: 2515-2523, (2002); Laderoute K R et al. Mol Cell Biol 24: 4128-4137, (2004)). The chambers containing the cells were then placed in a 37° C. circulating water bath and the original atmosphere was repeatedly exchanged with 5% CO2-95% N2 using a manifold equipped with a vacuum pump and a gas cylinder. Atmospheric oxygen partial pressure (pO2) values of less than or equal to 0.01% (relative to air at pO2 of about 21%) can be achieved inside the chambers using this system. Following various hypoxic exposures, the chambers were opened an anaerobic glove box (Bactron X, Sheldon Manufacturing Inc., Cornelius, Oreg.; attached to a cylinder containing 5% CO2-95% N2) to prepare cell lysates without significant reoxygenation. All manipulations of hypoxic cells were performed in the anaerobic glove box. Atmospheric oxygen levels in both the chambers and the glove box have been measured and calibrated using a polarographic oxygen electrode (Oxygen Sensors, Inc., Norristown, Pa.). Hypoxia experiments involving a pO2 of 1% were performed by equilibrating the glove box with an atmosphere of 1% O2 5% CO2 95% N2 held at 37° C. with a circulating fan. Cells were incubated inside a humidified space in the glove box and the medium on the cells was gently and continually agitated by using a rotary shaker. For these experiments, we used RAW 264.7 immortalized mouse macrophages as normal control cells, PC-3 prostate cancer cells, and MDA-MB-231 breast cancer cells, all available from ATCC.
(§2) We used immunoblotting to evaluate the experiments. Nuclear lysates were used to detect HIF-1α protein by immunoblotting (Murphy B J et al. Biochem Biophys Res Commun (In Press): 2005). Briefly, cells were placed on ice in air or on Super Ice® cold packs in the anaerobic glove box and the medium was removed. […] After spinning at 9,000×g for 5 min at 4° C., the protein concentrations of the supernatants were determined by using a bicinchoninic acid assay (Pierce Biotechnology). […] Primary antibody binding was detected and visualized by using the ECL Plus Western Blotting Detection System (Amersham Pharmacia Biotech) according to the supplier's instructions. HIF-1α protein was detected by using an anti-HIF-1α monoclonal antibody (Novus Biologicals, Cat. No. NB100-123; diluted 1:500) and a horseradish peroxidase-conjugated anti-mouse IgG secondary antibody (Santa Cruz Biotechnology, Cat. No. sc-2062; diluted 1:20,000). […]
Background: A western blot detects proteins with antibodies after separation by electrophoresis.

Test [4] concerns HIF-1α protein in MDA-MB-231 human breast carcinoma cells. Put plainly: HIF-1α protein expression by immunoblotting, MDA-MB-231 cells. The test is classed as cell-based. As to conditions: MDA-MB-231, same hypoxic/anoxic conditions as for (2). As to the method:
as §1, with “Hypoxia experiments involving a pO2 of 1% were performed by equilibrating the glove box with an atmosphere of 1% O2 5% CO2 95% N2 held at 37° C. with a circulating fan. Cells were incubated inside a humidified space in the glove box and the medium on the cells was gently and continually agitated by using a rotary shaker. For these experiments, we used RAW 264.7 immortalized mouse macrophages as normal control cells, PC-3 prostate cancer cells, and MDA-MB-231 breast cancer cells, all available from ATCC.” left out
as §2, with “experiments.” for “experiments. Nuclear lysates were used to detect HIF-1α protein by immunoblotting (Murphy B J et al. Biochem Biophys Res Commun (In Press): 2005). Briefly, cells were placed on ice in air or on Super Ice® cold packs in the anaerobic glove box and the medium was removed.”

The IC50 is the point on the concentration scale where inhibition reaches its midpoint. For `CN(C)CCOC/C=C1\CCC2C3CCc4cc(O)ccc4C3CCC12C` (centres unmarked), the IC50 in test [1] is 1800 nM.

On to `CCN(CC)Cc1ccc(OC/C=C2\CCC3C4C(CCC23C)c2ccc(O)cc2C[C@H]4C)c(OC)c1` (some centres unmarked), for which the IC50 in test [1] came out at 1500 nM. Still for that read-out and setting: with `C[C@@H]1Cc2cc(O)ccc2C2CCC3(C)C(CCOc4ccc(C=O)cc4Cl)CCC3C21` (some centres unmarked) the figure was 10000 nM. Consider `COc1cc2c(cc1O)CC[C@@H]1[C@@H]2CC[C@]2(C)[C@@H](O)CC[C@@H]12` [2-methoxyestradiol, 2-Methoxyestradiol, reference compound], for which, in test [2], the “estrogenic activity (alkaline phosphatase stimulation relative to estradiol at 10^−9 M)” value is “large amount of estrogenic activity”. For the same compound, the “HIF-1α protein expression, standard HIF-1 inhibitors” value in test [3] and in test [4] was “did not find any effect” throughout. `CCN(CC)Cc1cc(OC)c(OCCC2CCC3C4C(CCC23C)c2ccc(O)cc2C[C@H]4C)c(OC)c1` (some centres unmarked): in test [1], the IC50 was found to be 3600 nM.

Regarding `OCc1ccc(-c2nn(Cc3ccccc3)c3ccccc23)o1` [YC-1, reference compound], the “HIF-1α protein expression, standard HIF-1 inhibitors” value in test [3] was “did not find that YC-1, another standard HIF-1 inhibitor, could reproducibly inhibit”; in test [4] it was “did not find that YC-1, another standard HIF-1 inhibitor, could reproducibly inhibit”.

Turning to `CCN(CC)Cc1ccccc1OC/C=C1\CCC2C3C(CCC12C)c1ccc(O)cc1C[C@H]3C` (some centres unmarked), in test [1], the IC50 came out at 4700 nM. As to `COC(=O)/C=C/c1ccc(OC/C=C2\CCC3C4C(CCC23C)c2ccc(O)cc2C[C@H]4C)cc1` (some centres unmarked), the IC50 in test [1] worked out at 5300 nM.

`COc1cc(CO)ccc1OCCC1CCC2C3C(CCC12C)c1ccc(O)cc1C[C@H]3C` (some centres unmarked): the IC50 in test [1] was 5000 nM. Same read-out and setting: with `CCN(CC)Cc1ccc(OCCC2CCC3C4CCc5cc(O)ccc5C4CCC23C)c(OC)c1` (centres unmarked) the figure was 2000 nM; with `COc1cc(CN2CCCC2)ccc1OCCC1CCC2C3C(CCC12C)c1ccc(O)cc1C[C@H]3C` (some centres unmarked), 1200 nM. Same read-out and setting: with `COc1cc(CN2CCCCC2)ccc1OCCC1CCC2C3C(CCC12C)c1ccc(O)cc1C[C@H]3C` (some centres unmarked) the figure was 600 nM. Same read-out and setting: with `C[C@@H]1Cc2cc(O)ccc2C2CCC3(C)C(CCOCCN(C)C)CCC3C21` (some centres unmarked) the figure was 4000 nM. As for `CCN(CC)Cc1ccc(OCCC2CCC3C4C(CCC23C)c2ccc(O)cc2C[C@H]4C)c(OC)c1` (some centres unmarked), the IC50 in test [1] came to 2000 nM.
